Reference: patent US11033549B2, “Use of heterocyclic compounds in the treatment of pigmented skin” (ATIR Holding S.A., priority 2017, dated 2021)

Tested on: skin
Experiment: Effect of topical application of R-55 on skin of female volunteers
Format: in vivo, human
Settings: two middle-aged Caucasian female volunteers, daily topical application, after about one month
Protocol: A formulation for topical administration of R-55 (2-((4-(3-hydroxyphenyl)piperazin-1-yl)methyl)quinazolin-4-one) was prepared, comprising 10 mg/ml R-55.
A lipid-based phase was formed which consisted primarily of propylene glycol (a solvent of R-55 and penetration enhancer), along with Gelucire® 44/14 lauroyl macrogolglycerides (a solubilizer of R-55), Gelucire® 50/13 stearoyl macrogolglycerides (a sustained release agent), phosphatidyl choline (a surfactant), Labrasol® caprylocaproyl macrogolglycerides (a co-surfactant and penetration enhancer), Lauroglycol™ 90 (a solubilizer of R-55, co-surfactant and penetration enhancer), and vitamin E TPGS (a stabilizer). The ingredients were mixed by stirring at a temperature in a range of from 40° C. to 60° C. until the phosphatidyl choline and R-55 were completely dissolved, as indicated by obtaining a clear solution.
An aqueous solution of a carbomer (Carbopol® Ultrez 10) was added to the lipid-based phase with R-55 to obtain 100 grams of a suspension, which was stirred continuously at room temperature. A gel-like water-in-oil emulsion was formed, with relatively round aqueous droplets dispersed in a lipophilic phase, and the emulsion was stable for at least 2 weeks at room temperature. […]

O=c1nc(CN2CCN(c3cccc(O)c3)CC2)[nH]c2ccccc12 [R-55, 2-((4-(3-hydroxyphenyl)piperazin-1-yl)methyl)quinazolin-4-one]
skin pigmentation (10 mg/ml R-55, face and behind the ear): noticeably less pigmented | skin appearance (10 mg/ml R-55): overall fresher, younger appearance
